For six molecules, inhibition and IC50 results are on record in ChEMBL document CHEMBL4229463, “Regio- and stereospecific synthesis of rac-carbasugar-based cyclohexane pentols; Investigations of their α- and β-glucosidase inhibitions” (Bioorg Med Chem, 2018).

For assay [1], the system named is Saccharomyces cerevisiae. The assay is described as follows: Inhibition of Saccharomyces cerevisiae alpha-glucosidase at 20 uM using PNPG as substrate after 3 mins by UV-vis spectrophotometric method relative to control.
In assay [2] the test system is Saccharomyces cerevisiae. In words: Inhibition of Saccharomyces cerevisiae alpha-glucosidase at 60 uM using PNPG as substrate after 3 mins by UV-vis spectrophotometric method relative to control.
The test system of assay [3] is Saccharomyces cerevisiae. In words: Inhibition of Saccharomyces cerevisiae alpha-glucosidase at 120 uM using PNPG as substrate after 3 mins by UV-vis spectrophotometric method relative to control.
Assay [4] has as its system Prunus dulcis. In words: Inhibition of almond beta-glucosidase at 80 uM using PNPG as substrate after 3 mins by UV-vis spectrophotometric method relative to control.
Assay [5] in a line: Inhibition of Saccharomyces cerevisiae alpha-glucosidase using PNPG as substrate after 3 mins by UV-vis spectrophotometric method.
For assay [6], the system named is Saccharomyces cerevisiae. The assay is described as follows: Inhibition of Saccharomyces cerevisiae alpha-glucosidase at 10 uM using PNPG as substrate after 3 mins by UV-vis spectrophotometric method relative to control.
For assay [7], the system named is Prunus dulcis. In words: Inhibition of almond beta-glucosidase at 120 uM using PNPG as substrate after 3 mins by UV-vis spectrophotometric method relative to control.
Assay [8] has as its system Prunus dulcis. In words: Inhibition of almond beta-glucosidase at 20 uM using PNPG as substrate after 3 mins by UV-vis spectrophotometric method relative to control.
Assay [9] deals with Saccharomyces cerevisiae. The assay is described as follows: Inhibition of Saccharomyces cerevisiae alpha-glucosidase at 80 uM using PNPG as substrate after 3 mins by UV-vis spectrophotometric method relative to control.
For assay [10], the system named is Prunus dulcis. The assay is described as follows: Inhibition of almond beta-glucosidase at 40 uM using PNPG as substrate after 3 mins by UV-vis spectrophotometric method relative to control.
Assay [11] concerns Prunus dulcis. The assay is described as follows: Inhibition of almond beta-glucosidase at 60 uM using PNPG as substrate after 3 mins by UV-vis spectrophotometric method relative to control.
Assay [12] relates to Prunus dulcis. In words: Inhibition of almond beta-glucosidase at 10 uM using PNPG as substrate after 3 mins by UV-vis spectrophotometric method relative to control.
The subject of assay [13] is Saccharomyces cerevisiae. In words: Inhibition of Saccharomyces cerevisiae alpha-glucosidase at 40 uM using PNPG as substrate after 3 mins by UV-vis spectrophotometric method relative to control.
Assay [14] in a line: Inhibition of almond beta-glucosidase using PNPG as substrate after 3 mins by UV-vis spectrophotometric method. Also on record: species or system Prunus dulcis.

As for `OC[C@H]1C[C@H](Cl)[C@@H](O)[C@H](O)[C@H]1CO` (racemic), the inhibition (usually the percentage by which the read-out fell short of the control) with Saccharomyces cerevisiae [1] was found to be 13.3%; in the assay on Saccharomyces cerevisiae [2], 26.1%; with Saccharomyces cerevisiae [3], 55%; in the assay with Prunus dulcis [4], 24.1%; in the assay with Saccharomyces cerevisiae [6], 12.2%; in the assay on Prunus dulcis [7] it was 32.3%. The inhibition in the assay on Prunus dulcis [8] came to 5.2%; in the assay on Saccharomyces cerevisiae [9], 38%; in the assay on Prunus dulcis [10], 19.1%; in the assay with Prunus dulcis [11], 20.6%; in the assay on Prunus dulcis [12] it was 1.99%; in the assay with Saccharomyces cerevisiae [13] it was 15%. Moreover, half-maximal inhibition in assay [5] (IC50) required 176 µM.

Regarding `OC[C@H]1C[C@H](O)[C@@H](Cl)[C@H](O)[C@H]1CO` (racemic), the inhibition with Saccharomyces cerevisiae [1] is 7.9%; in the assay on Saccharomyces cerevisiae [2], 23%; with Saccharomyces cerevisiae [3], 56.4%; in the assay with Prunus dulcis [4] it was 24.6%; in the assay with Saccharomyces cerevisiae [6], 3.98%; in the assay on Prunus dulcis [7] it was 26.4%. The inhibition with Prunus dulcis [8] is 11.7%; with Saccharomyces cerevisiae [9] it was 34.8%; in the assay with Prunus dulcis [10] it was 18.4%; in the assay with Prunus dulcis [11], 21.1%; in the assay on Prunus dulcis [12], 2.49%; with Saccharomyces cerevisiae [13] it was 20.4%. In addition, the IC50 (commonly the point on the concentration scale where inhibition reaches its midpoint) in assay [5] came to 155 µM.

`OC[C@H]1C[C@@H](O)[C@H](O)[C@@H](O)[C@H]1CO` (racemic): the inhibition is 12.1% in the assay with Saccharomyces cerevisiae [1]; 25.3% with Saccharomyces cerevisiae [2]; 44.6% in the assay with Saccharomyces cerevisiae [3]; 33.8% in the assay with Prunus dulcis [4]; 10.4% with Saccharomyces cerevisiae [6]; 36.8% with Prunus dulcis [7]. In addition, the inhibition in the assay with Prunus dulcis [8] amounted to 5.22%; with Saccharomyces cerevisiae [9] it was 33.6%; in the assay on Prunus dulcis [10], 25.1%; in the assay with Prunus dulcis [11], 30.8%; in the assay on Prunus dulcis [12] it was 3.74%; with Saccharomyces cerevisiae [13], 22.5%.

Turning to `OC[C@H]1C[C@H](O)[C@@H](O)[C@H](O)[C@H]1CO` (racemic), the inhibition was found to be 3.6% in the assay on Saccharomyces cerevisiae [1]; 8.5% in the assay on Saccharomyces cerevisiae [2]; 16% in the assay with Saccharomyces cerevisiae [3]; 17.7% in the assay on Prunus dulcis [4]; 2.13% in the assay with Saccharomyces cerevisiae [6]; 17.4% in the assay with Prunus dulcis [7]. In addition, the inhibition in the assay on Prunus dulcis [8] came out at 5.97%; in the assay with Saccharomyces cerevisiae [9], 10.8%; with Prunus dulcis [10], 10.9%; in the assay with Prunus dulcis [11], 15.4%; in the assay on Prunus dulcis [12], 2.24%; in the assay on Saccharomyces cerevisiae [13], 7.83%.

Consider `OC[C@H]1C[C@H](O)[C@H](O)[C@@H](O)[C@H]1CO` (racemic), for which the inhibition worked out at 5.59% with Saccharomyces cerevisiae [1]; 8.21% with Saccharomyces cerevisiae [2]; 16.3% in the assay with Saccharomyces cerevisiae [3]; 12.9% in the assay with Prunus dulcis [4]; 3.42% in the assay with Saccharomyces cerevisiae [6]; 23% in the assay with Prunus dulcis [7]. Further, the inhibition was determined as 9.5% with Saccharomyces cerevisiae [9], 2% in the assay with Prunus dulcis [10], 4.29% in the assay on Prunus dulcis [11] and 7.93% with Saccharomyces cerevisiae [13].

With `C[C@H]1O[C@H](O[C@H]2[C@H](O)[C@@H](O)[C@@H](O[C@H]3[C@H](O)[C@@H](O)C(O)O[C@@H]3CO)O[C@@H]2CO)[C@H](O)[C@@H](O)[C@@H]1N[C@H]1C=C(CO)[C@@H](O)[C@H](O)[C@H]1O` (some centres undefined) [ACARBOSE], the inhibition in the assay on Saccharomyces cerevisiae [1] stood at 30%; in the assay on Saccharomyces cerevisiae [2] it was 46%; in the assay on Saccharomyces cerevisiae [3], 78%; in the assay on Prunus dulcis [4], 58%; with Saccharomyces cerevisiae [6], 22.8%; with Prunus dulcis [7], 68%. In addition, the inhibition is 25% in the assay on Prunus dulcis [8]; 60% with Saccharomyces cerevisiae [9]; 40% in the assay with Prunus dulcis [10]; 52% in the assay with Prunus dulcis [11]; 17% in the assay with Prunus dulcis [12]; 33% with Saccharomyces cerevisiae [13]. Also, the IC50 in assay [5] came out at 52.2 µM; in assay [14], 55.9 µM.
